Source: paper PMC10508830 (Antiviral research, 2023)
Like-named read-outs stand apart in the source and are kept apart here.

Tests used:
[1] = target: NA of A/black vulture/Florida/22-012333-001/2022 (N/S295, T/N438, mixed population) (Influenza A virus (H5N1), UniProt Q9Q0U7); format: biochemical; details: read-out: Mean IC50 ± SD
[2] = target: NA of A/fox/Michigan/22-014536-004/2022 (del50-70) (Influenza A virus, UniProt Q9Q0U7); format: biochemical, influenza A(H5N1) virus; details: read-out: Mean IC50 ± SD
[3] = target: NA of A/turkey/Iowa/22-012098-001/2022 (Influenza A virus, UniProt Q9Q0U7); format: biochemical; details: read-out: Mean IC50 ± SD
[4] = target: NA of A/Cooper's hawk/Minnesota/22-012931-001/2022 (Influenza A virus, UniProt Q9Q0U7); format: biochemical, influenza A(H5N1) virus; details: read-out: Mean IC50 ± SD
[5] = target: NA of A/black vulture/Maryland/22-012407-001/2022 (Influenza A virus (H5N1), UniProt Q9Q0U7); format: biochemical; details: read-out: Mean IC50 ± SD
[6] = target: NA of A/Illinois/45/2019 A(H1N1)pdm09 (Influenza A virus, UniProt A0A0X9QTS2); format: biochemical; details: read-out: Mean IC50 ± SD
[7] = target: NA of A/red-shouldered hawk/Minnesota/22-012000-004/2022 (Influenza A virus, UniProt Q9Q0U7); format: biochemical; details: read-out: Mean IC50 ± SD
[8] = target: NA of A/Canada goose/Wyoming/22-011671-001/2022 (Influenza A virus, UniProt Q9Q0U7); format: biochemical, influenza A(H5N1) virus; details: read-out: Mean IC50 ± SD
[9] = target: NA of A/bald eagle/Florida/22-006544-004/2022 (Influenza A virus, UniProt Q9Q0U7); format: biochemical; details: read-out: Mean IC50 ± SD
[10] = target: NA of A/fox/Wisconsin/22-013774-002/2022 (Influenza A virus, UniProt Q9Q0U7); format: biochemical; details: read-out: Mean IC50 ± SD
[11] = test system: A/bald eagle/Florida/22-006544-004/2022; test: microbe, parasite or virus in culture; format: cell-based, influenza A(H5N1) virus; details: Influenza A virus, read-out: Mean EC50 ± SD
[12] = test system: A/fox/Wisconsin/22-014746-030/2022; test: microbe, parasite or virus in culture; format: cell-based, influenza A(H5N1) virus; details: Influenza A virus, read-out: Mean EC50 ± SD
[13] = test system: A/black vulture/Florida/22-012331-001/2022; test: microbe, parasite or virus in culture; format: cell-based, influenza A(H5N1) virus; details: Influenza A virus, read-out: Mean EC50 ± SD
[14] = test system: A/Illinois/08/2018 A(H1N1)pdm09; format: cell-based, influenza A(H1N1)pdm09 virus; details: read-out: Mean EC50 ± SD
[15] = test system: A/Illinois/08/2018 A(H1N1)pdm09; test: microbe, parasite or virus in culture; format: cell-based, influenza A(H1N1)pdm09 virus; details: Influenza A virus, H1N1, read-out: Mean EC50 ± SD
[16] = test system: A/Louisiana/50/2017 A(H3N2); test: microbe, parasite or virus in culture; format: cell-based; details: Influenza A virus, H3N2, read-out: Mean EC50 ± SD

Row | Compound | IC50 [1] | IC50 [2] | IC50 [3] | IC50 [4] | IC50 [5] | IC50 [6] | IC50 [7] | IC50 [8] | IC50 [9] | IC50 [10] | EC50 [11] | EC50 [12] | EC50 [13] | EC50 [14] | EC50 [15] | EC50 [16]
1 | peramivir | 0.55 nM | 0.1 nM | 0.1 nM | 0.1 nM | 0.1 nM | 0.06 ± 0.01 nM | 0.09 nM | 0.08 nM | 0.08 nM | 0.09 nM |  |  |  |  |  | 
2 | O=C1c2c(O)c(=O)ccn2N([C@@H]2c3ccccc3SCc3c2ccc(F)c3F)[C@@H]2COCCN12 [Baloxavir, baloxavir acid] |  |  |  |  |  |  |  |  |  |  | 0.41 nM | 0.32 nM | 0.44 nM | 1.12 ± 0.32 nM | 1.65 ± 0.44 nM | 1.04 ± 0.43 nM
3 | oseltamivir carboxylate |  |  |  |  |  | 0.17 ± 0.03 nM |  |  |  |  |  |  |  |  |  | 
